Assay results published in patent publication US5420289A, “Substituted indole-, indene-, pyranoindole- and tetrahydrocarbazole-alkanoic acid derivatives as inhibitors of PLA2 and lipoxygenase” (American Home Products Corporation, priority 1993, dated 1995).

Columns and labels:
[1] = test system: paw edema induced by PLA2 from the diamond back cotton mouth snake (A. piscivorus piscivorus); experiment: in vivo PLA2 murine paw edema assay (Example 75); parameters: species or system mouse (male CD-1); details: for ED50 at +10 min.: p.o., at +10 min after PLA2, standard drugs
Method: The ability of the compounds of the invention to inhibit paw edema induced by the exogenous administration of PLA2 is measured in the in vivo PLA2 murine paw edema assay.
The assay is carried out as follows:
Non-fasted, male CD-1 mice (8 weeks old; 31-36 grams) are placed in plastic boxes in groups of six. The right hind paw volume is measured using mercury plethysmography (zero time). Compounds are dosed orally (0.5 mL of 0.5% Tween-80) 1 or 3 hours prior to PLA2 injection or intravenously (0.2 mL in 0.3% dimethylsulfoxide/saline) 3 minutes prior to PLA2 injection. A solution of purified PLA2, from the diamond back cotton mouth snake (A. piscivorus piscivorus) is prepared in saline at a concentration of 6 mg/mL. Fifty (50) uL (0.3 mg) of this PLA2 solution is injected subcutaneously into the right hind paw with a plastic 1 mL plastic syringe (27 gauge, "1" needle). Paw volume of the injected paw is measured again at 10 minutes, 30 minutes and 60 minutes after PLA2 injection. Animals are euthanized with CO2 at the completion of the study.
The paw edema is calculated by subtracting the zero time volume from the volume recorded at each time period. Mean paw edema for each treatment group is then calculated and expressed as (mL±S.E.). Drug effects are expressed as a percent change from control (vehicle) values. Statistical significance is determined by a one-way analysis of variance with LSD comparison to control (p<0.05). ED50 's are determined using repression analysis.

[2] = test system: paw edema induced by PLA2 from the diamond back cotton mouth snake (A. piscivorus piscivorus); experiment: in vivo PLA2 murine paw edema assay (Example 75); parameters: species or system mouse (male CD-1)
[3] = test system: synthesis of LTB4 by rat glycogen-elicited polymorphonuclear leukocytes (PMN); experiment: inhibition of LTB4 synthesis by rat glycogen-elicited PMN (Example 72); assay type: cell-based, rat (female Wistar); details: Leukocyte; for inhibition at 10000 µM: at 10 mM, negative number denotes potentiation
Text: This is especially true with respect to 5,12-diHETE, which is also denoted as LTB4 lsee Ford-Hitchinson, J. Roy. Soc. Med., 74, 831 (1981)]. Compounds which inhibit the PLA2 -mediated release of arachidonic acid thereby effectively prevent the oxidation of arachidonic acid to the various leukotriene products via the lipoxygenase cascade. Accordingly, the specificity of action of PLA2 inhibitors can be determined by the activity of test compounds in this assay, which measures the ability of compounds to inhibit the synthesis of LTB4 by rat glycogen-elicited polymorphonuclear leukocytes (PMN) in the presence of exogenous substrate.
The assay is carded out as follows:
(§1) Rat polymorphonuclear leukocytes (PMNs) are obtained from female Wistar rats (150-200 g) which receive an injection of 6% glycogen (10 ml i.p.). Rats are sacrificed 18-24 hours post injection by CO2 asphyxiation and the elicited cells are harvested by peritoneal lavage using physiological saline (0.9% NaC1). The exudate is centrifuged at 400 ×g for 10 minutes. The supernatant fluid is discarded and the cell pellet is resuspended to a concentration of 2.0×10^7 cells/mL in HBSS containing Ca^++ and Mg^++ and 10 mM L-cysteine.
(§2) To 1 mL aliquots of cell suspension, test drugs or vehicle are added, then preincubated at 37° C. for 10 minutes. A23187 (1 mM), [^3 H]-AA (3.0 mCi/mL) and unlabeled AA (1 mM) are then added and the samples are further incubated for 10 minutes. The reaction is terminated by centrifugation and pelleting cells. Supernatants are then analyzed by HPLC analysis on a 15 cm×4.6 mm ID supelcosil LC-18 (Supelco)(3M) column, using a two solvent system at a flow rate of 1.4 mL total flow as follows:
Gradient: (system is equilibrated with Solvent A)
Percent solvent changes are accomplished in a linear fashion.
Injections: […] of each supernatant is injected directly onto column and ^3 H arachidonic acid metabolites are monitored using an on-line radioactivity detector (Ramona, IN/U S, Fairfield, NJ).
Standards: 10^4 -2.0×10^4 dpm of eicosanoids of interest are injected in […] EtOH cocktail.
Co-chromatography with standard [^3 H] leukotriene B4 (LTB4) in medium of stimulated PMN exposed to drug is compared to that found in medium of stimulated cells exposed to no drug, generating percent inhibition.
Results are expressed as percent inhibition at a given compound dose or as an IC50 value.

[4] = test system: cyclooxygenase (PGE2 synthesis) in rat polymorphonuclear leukocytes (PMN); experiment: inhibition of PGE2 synthesis (cyclooxygenase) by rat glycogen-elicited PMN (Example 73); assay type: cell-based, rat (female Wistar); details: Leukocyte, * (negative) denotes a potentiation; for inhibition at 10000 µM: at 10 mM, read-out: % Inhibition (PGE2 synthesis); for inhibition at 500 µM: at 0.5 mM
Method: as §1, §2
In this assay, the procedure of Example 72 is carried out as described. However, in order to determine cyclooxygenase activity, the samples are cochromatographed with authentic reference [^3 H]-PGE2.
The results be calculated as in Example 72 and presented below: […]

[5] = biological target: T1, human synovial fluid PLA2 (Homo sapiens, UniProt P14555); experiment: in vitro isolated phospholipase A2 assay, human synovial fluid PLA2 (Example 74); assay type: biochemical; parameters: inhibition / % Inhibition, HSF (human synovial fluid): dose or concentration left out as unconfirmed; details: for IC50: Table III, read-out: IC50 HSF (human synovial fluid); for inhibition: read-out: % Inhibition, HSF (human synovial fluid)
T1 sequence (P14555 21-144): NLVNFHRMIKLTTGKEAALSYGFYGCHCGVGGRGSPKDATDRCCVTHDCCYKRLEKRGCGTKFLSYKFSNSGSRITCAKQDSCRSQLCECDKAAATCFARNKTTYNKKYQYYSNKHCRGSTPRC
How it was run: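 Human synovial fluid PLA2 (purified) acts on ³H-arachidonate-labelled E. coli substrate, 10 minutes at 37° C with shaking; stopped with tetrahydrofuran. Released arachidonic acid is isolated on NH2 columns, eluted with tetrahydrofuran/2% acetic acid and quantitated by β-counting against a total-counts sample.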

human platelet PLA2 = biological target: T2, human platelet PLA2 (Homo sapiens, UniProt P14555); experiment: in vitro isolated phospholipase A2 assay, human platelet PLA2 (Example 74); assay type: biochemical; parameters: dose or concentration left out as unconfirmed; details: read-out: % Inhibition, HP (human platelet)
T2 construct: Semi-purified human platelet acid extract PLA2; from tissue; host or cells: human platelets (semi-purified acid extract)
T2 sequence (P14555 21-144): T1 sequence (P14555 21-144)
Method: The compounds of the invention are tested in an in vitro isolated phospholipase A2 assay to determine the ability of the test compounds to inhibit the release of arachidonic acid from an arachidonic acid-containing substrate by the action of phospholipase A2 enzyme from human and non-human sources.
This assay is carried out as follows:
Into a 15 mL polypropylene tube are added the following:
^6 Two human PLA2 enzymes are used:
a) Semi-purified human platelet acid extract PLA2 (in 10 mM
sodium acetate buffer, pH 4.5). Remove protein precipitate by
centrifugation at about 2200 rpm for 10 minutes.
Incubate the 100mL reaction mixture for 10 minutes at 37° C. in a shaking water bath. The reaction is terminated by the addition of 2 mL tetrahydrofuran, followed by vortexlag. NH2 columns (100 mg/mL--Analytichem International) are conditioned with 0.5 mL tetrahydrofuran followed by 0.5 mL tetrahydrofuran/water (2 mL:0.1 mL, v/v).
The sample is loaded onto the columns and slowly drawn through them. The hydrolyzed arachidonic acid retained in the columns is eluted therefrom with 1 mL tetrahydrofuran/glacial acetic acid (2%). The arachidonic acid is transferred to scintillation vials and quantitated by b-counting analysis. A "total counts" sample is prepared by pipetting […] ^3 H-arachidonate E. coli directly into a scintillation vial to which is added 1 mL tetrahydrofuran. 10 mL aquasol (scintillation cocktail) is added to all samples. [formula]

Question: For COc1cccc2c1cc([N+](=O)[O-])c1c(C(=O)O)cc3c(c12)OCO3 [Aristolochic Acid, reference compound], which “ED50 at +10 min.” value [1] is on record?
Answer: Not Active

Question: For C[C@@H]1C[C@H]2[C@@H]3CCC4=CC(=O)C=C[C@]4(C)[C@@]3(F)[C@@H](O)C[C@]2(C)[C@@]1(O)C(=O)CO [Dexamethasone], which “ED50 at +10 min.” value ([2]; p.o. 3 hr, at +10 min after PLA2) is on record?
Answer: 10 mg/kg

Question: For CC1=C(CC(=O)O)c2cc(OCc3ccc4ccccc4n3)ccc2/C1=C\c1ccc(Cl)cc1 [Example 1, 3-[(4-Chlorophenyl)methylene]-[2-methyl-6-(2-quinolinylmethoxy)]-3H-indene-1-acetic acid], which inhibition at 10000 µM [3] is on record?
Answer: 96%

Question: And the inhibition at 10000 µM [4]?
Answer: 81%

Question: And the IC50 [5]?
Answer: 9.7 µM

Question: What about the “% Change in Edema” value ([1]; 10 mg/kg i.v., 10 min) of the same molecule?
Answer: -6%

Question: What about the “% Change in Edema” value ([1]; 10 mg/kg i.v., 30 min) of the same molecule?
Answer: -9%

Question: What about the “% Change in Edema” value ([1]; 10 mg/kg i.v., 60 min) of the same molecule?
Answer: -40%

Question: And the “% Change in Edema” value ([1]; 100 mg/kg p.o., 10 min)?
Answer: +4%

Question: What about the “% Change in Edema” value ([1]; 100 mg/kg p.o., 30 min) of the same molecule?
Answer: -27%

Question: And the “% Change in Edema” value ([1]; 100 mg/kg p.o., 60 min)?
Answer: -6%

Question: For CSc1ccc(/C=C2/C(C)=C(CC(=O)O)c3cc(OCc4ccc5ccccc5n4)ccc32)cc1 [Example 2, 2-Methyl-3-[[4-(methylthio)phenyl]methylene]-6-(2-quinolinylmethoxy)-3H-indene-1-acetic acid], which inhibition at 10000 µM [3] is on record?
Answer: 96%

Question: What about the inhibition at 10000 µM [4] of the same molecule?
Answer: 92%

Question: And the IC50 [5]?
Answer: 3.6 µM

Question: And the “% Change in Edema” value ([1]; 10 mg/kg i.v., 10 min)?
Answer: -39%

Question: What about the “% Change in Edema” value ([1]; 10 mg/kg i.v., 30 min) of the same molecule?
Answer: -43%

Question: And the “% Change in Edema” value ([1]; 10 mg/kg i.v., 60 min)?
Answer: -37%

Question: What about the “% Change in Edema” value ([1]; 100 mg/kg p.o., 10 min) of the same molecule?
Answer: -6%

Question: And the “% Change in Edema” value ([1]; 100 mg/kg p.o., 30 min)?
Answer: -22%

Question: And the “% Change in Edema” value ([1]; 100 mg/kg p.o., 60 min)?
Answer: +18%

Question: Which inhibition at 500 µM ([3]; at 0.5 mM) does the source give for CC1=C(CC(=O)O)c2cc(F)ccc2C1=Cc1ccc(OCc2ccc3ccccc3n2)cc1 [Example 4, 5-Fluoro-2-methyl-1-[[4-(2-quinolinylmethoxy)phenyl]methylene]-1H-indene-3-acetic acid] here?
Answer: 92%

Question: What about the inhibition at 500 µM [4] of the same molecule?
Answer: 7%

Question: What about the inhibition (human platelet PLA2) of the same molecule?
Answer: 58%

Question: And the inhibition [5]?
Answer: 48%

Question: Which results are given for CCCCCCOc1ccc2c(c1)c(CC(=O)O)c(C)n2Cc1ccc(Cl)cc1 [Example 19, 1-[(4-Chlorophenyl)methyl]-5-(hexyloxy)-2-methyl-1H-indole-3-acetic acid]?
Answer: inhibition (human platelet PLA2): 71%; inhibition [5]: 45%; % Change in Edema ([2]; 30 mg/kg i.p., 30 min): -30%; % Change in Edema ([2]; 60 mg/kg i.p., 30 min): -34%

Question: Which inhibition at 10000 µM [3] does the source give for CC1=C(CC(=O)O)c2cc(OCc3ccc4ccccc4n3)ccc2C1=Cc1ccc(OCc2ccc3ccccc3n2)cc1 [Example 41, 2-Methyl-5-(2-quinolinylmethoxy)-1-[[4-(2-quinolinylmethoxy)phenyl]methylene]-1H-indene-3-acetic acid] here?
Answer: 100%

Question: What about the inhibition at 500 µM [4] of the same molecule?
Answer: -21%

Question: What about the inhibition (human platelet PLA2) of the same molecule?
Answer: 90%

Question: What about the inhibition [5] of the same molecule?
Answer: 3.8%

Question: With COc1ccc2cc([C@H](C)C(=O)O)ccc2c1 [Naproxen, reference compound] as the molecule, how does the “ED50 at +10 min.” value [1] read?
Answer: 18 mg/kg

Question: With COc1ccc2c(c1)c(CC(=O)O)c(C)n2C(=O)c1ccc(Cl)cc1 [indomethacin, reference compound] as the molecule, how does the IC50 [5] read?
Answer: 145 µM

Question: What about the “% Change in Edema” value ([2]; 10 mg/kg p.o., 10 min) of the same molecule?
Answer: -32%

Question: What about the “% Change in Edema” value ([2]; 10 mg/kg p.o., 30 min) of the same molecule?
Answer: -31%

Question: And the “% Change in Edema” value ([2]; 10 mg/kg p.o., 60 min)?
Answer: -42%

Question: How did the “ED50 at +10 min.” value [1] turn out when Luffarrellolide [reference compound] was run?
Answer: Not Active
